Assay: ASTM D 1929 ignition temperature test, polypropylene beads with and without Deltamethrin
Assay type: physicochemical
Details: polypropylene beads with 11 wt % Deltamethrin and 2 wt % Bumetrizole vs pure polypropylene beads; air velocity 25 mm/s; FIG. 1
Excerpt: ASTM D 1929: Standard Test Method for Determining Ignition Temperature of Plastics
The objective of this method is to determine at which temperature plastic material (sheet or granules) release flammable gases and vapors to such an extent, that an explosive mixture with air can be formed, that can be ignited with a pilot flame.
This “flash-point” of plastics is an important safety characteristic, which can be used to assess explosion and fire risk in plant where plastic material is processed, handled or stored. The objective of this method is to determine the temperature at which gases and vapors released from plastic sheets or granules spontaneously catch fire, i.e. without contact to an external ignition source. The Self-Ignition Temperature is relevant for the assessment of ignition risks due to hot surfaces in plant where plastic material is processed, e.g. in extruders. The tests are carried out by exposing the test item (sample) in an oven to a controlled stream of hot, fresh air. Ignition is detected by monitoring the temperature of the sample. For flash ignition, a pilot flame above the exhaust of the oven is used. For self-ignition test, no external ignition source is applied. The test are carried out in isothermal mode, i.e. at constant temperature. Several trials, at different temperatures are necessary to find the lowest temperature, at which ignition does occur. […]

CC1(C)[C@H](C(=O)O[C@H](C#N)c2cccc(Oc3ccccc3)c2)[C@@H]1C=C(Br)Br [Deltamethrin]
flash ignition temperature: higher flash ignition temperature | spontaneous ignition temperature: higher spontaneous ignition temperature

Reference: patent publication US20150274932A1, “USE OF BIOCIDES AS FLAME RETARDANTS” (BAYER CROPSCIENCE AG, priority 2012, published 2015)
